The source of these data is patent US20170122958A1, “Enzymes Functional Probes” (University of Dundee, priority 2013, published 2017).

Test [1] deals with WT and mutants (Leu to Ala, Leu to Val and Leu to Ile) of Brd2(2). The test is described as follows: ITC of compound into protein (FIG. 16). Format: binding, human. Conditions: 250 μM compound into 25 μM protein; result in words. On the procedure:
To investigate the utility of the new compounds further, the inventors performed isothermal titration experiments by titrating 250 μM compound solutions (AL, ME-Am1, ET-Am1, ME-Am2, ET-Am2, 9-ME, 9-ET, 9-ME-Am1 and 9-ET-Am1) 25 μM protein solutions (WT and mutants (Leu to Ala, Leu to Val and Leu to Ile) of Brd2(2)).
ITC experiments were carried out on a ITC200 instrument from MicroCal™ Experiments were conducted at 3 different temperatures 15° C., 25° C. and 30° C., while stirring at 1000 rpm. Buffers of proteins, peptide and compounds were matched to 20 mM HEPES pH 7.5 at 25° C. and 100 mM NaCl. Frozen protein was buffer exchanged as described for the DSF experiments. Each titration comprised 1 initial injection of 0.4 μl lasting 0.8 s, followed by 19 injections of 2 μl lasting 4 s each at 2 min intervals. The initial injection was discarded during data analysis. Standard and reverse titrations were conducted depending on the binding partners.
All the data was fitted to a single binding site model using the Microcal LLC ITC200 Origin software provided by the manufacturer to yield enthalpies of binding (ΔH) and binding constants (Kas). Further thermodynamic parameters were calculated from these values (changes in entropy ΔS, changes in free energy AG and dissociation constants (Kds)).

For test [2], the target named is T1, Brd2(2)*(Met438-Leu) (Homo sapiens, UniProt P25440, M438L).
T1 construct: Plasmids of the eight single BET bromodomain constructs Brd2(1), Brd2(2), Brd3(1), Brd3(2); His6 (N); made in house; host or cells: E. coli BL21(DE3)
As to the kind of experiment: DSF thermal shift. Format: binding. The note with it: mutant. On the procedure:
(§1) DSF assays were performed on a LightCycler®480 from Roche or a Mx3005P Real Time PCR machine from Stratagene. Prior to DSF assays, frozen proteins were buffer exchanged using Vivaspin®6 concentrators with a 10 kDa cutoff on a Centrifuge 5430 from Eppendorf at a speed of 6000×g to remove glycerol and to buffer the proteins in 20 mM HEPES pH 7.5 at 25° C. and 100 mM NaCl. SYPRO®Orange from Invitrogen Molecular Probes® was used as a reporter dye to monitor the denaturing process of the proteins. Samples were assayed on a 96-well plate with final protein concentrations of 2 μM for the LightCycler®480 and 6 μM for Mx3005P. Compounds were added at a final concentration of 10 μM for the LightCycler®480 and 30 μM for Mx3005P, while the tetra acetylated histone peptide was added to a final concentration of 100 μM and 300 μM respectively. […] The temperature was raised with a step of 0.6° C. per minute from 37° C. to 95° C. with the LightCycler®480 collecting 39 measurements per ° C., and 1° C. per minute from 25° C. to 95° C. with Mx3005P, collecting fluorescence readings at the end of each interval. Each sample was run in triplicates.
(§2) Collected data was analysed by IGOR Pro 6, a scientific software tool from Wave Metrics, Inc. Analysis was done following the recommendations of Niesen et al.. Fluorescence intensity was plotted as a function of temperature, generating a sigmoidal curve described by a two-state transition from folded to unfolded protein. Curves were fitted by the following sigmoidal equation: […]
(§3) A1 and A2 are the values of minimum and maximum intensities, respectively, x0 is the inflection point and dx is the rate. Fitted curves were differentiated in IGOR Pro 6 and the maximum of the first derivative was identified using the same program. These values correspond to the inflection points of the transition curves and thus to the melting temperatures of the proteins (Tm).

The target in test [3] is T2, Brd2(1)*(Met165-Leu) (Homo sapiens, UniProt P25440, M165L).
T2 construct: Plasmids of the eight single BET bromodomain constructs Brd2(1), Brd2(2), Brd3(1), Brd3(2); His6 (N); made in house; host or cells: E. coli BL21(DE3)
As to the kind of experiment: DSF thermal shift. Conditions: mutant. Format: binding. On the procedure:
as §1, §2, §3

Test [4] deals with T3, Brd2(2)*(Met438-Ala) (Homo sapiens, UniProt P25440, M438A).
T3 construct: Plasmids of the eight single BET bromodomain constructs Brd2(1), Brd2(2), Brd3(1), Brd3(2); His6 (N); made in house; host or cells: E. coli BL21(DE3)
The test is described as follows: DSF thermal shift. Format: binding. Conditions: mutant. On the procedure: as §1, §2, §3

Test [5] concerns the target Brd2(1)*(Met165Ala) (Homo sapiens, UniProt P25440, M165A). As to the kind of experiment: DSF thermal shift. Format: binding. Set-up: Plasmids of the eight single BET bromodomain constructs Brd2(1), Brd2(2), Brd3(1), Brd3(2); His6 (N); made in house; host or cells: E. coli BL21(DE3). The note with it: mutant. On the procedure:
as §1, §2, §3

Test [6] concerns the target T4, Brd2(2) (Homo sapiens, UniProt P25440).
T4 construct: Plasmids of the eight single BET bromodomain constructs Brd2(1), Brd2(2), Brd3(1), Brd3(2); His6 (N); made in house; host or cells: E. coli BL21(DE3)
As to the kind of experiment: DSF thermal shift. Format: binding. The note with it: wild type. On the procedure:
as §1, with “Prior to DSF assays, frozen proteins were buffer exchanged using Vivaspin®6 concentrators with a 10 kDa cutoff on a Centrifuge 5430 from Eppendorf at a speed of 6000×g to remove glycerol and to buffer the proteins in 20 mM HEPES pH 7.5 at 25° C. and 100 mM NaCl.” left out
as §2, §3

The target in test [7] is T5, Brd2(1) (Homo sapiens, UniProt P25440).
T5 construct: Plasmids of the eight single BET bromodomain constructs Brd2(1), Brd2(2), Brd3(1), Brd3(2); His6 (N); made in house; host or cells: E. coli BL21(DE3)
As to the kind of experiment: DSF thermal shift. Conditions: wild type. Format: binding. On the procedure: as §1, with “Prior to DSF assays, frozen proteins were buffer exchanged using Vivaspin®6 concentrators with a 10 kDa cutoff on a Centrifuge 5430 from Eppendorf at a speed of 6000×g to remove glycerol and to buffer the proteins in 20 mM HEPES pH 7.5 at 25° C. and 100 mM NaCl.” left out
as §2, §3

T1 sequence (P25440 344-453 M438L limits assumed): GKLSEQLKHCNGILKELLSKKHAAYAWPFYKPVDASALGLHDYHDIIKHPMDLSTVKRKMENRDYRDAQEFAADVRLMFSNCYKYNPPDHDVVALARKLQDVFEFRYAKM
T4 sequence (P25440 344-453 limits assumed): as the sequence (P25440 344-453 M438L limits assumed) above, with L95M counted along it
T3 sequence (P25440 344-453 M438A limits assumed): as the sequence (P25440 344-453 M438L limits assumed) above, with L95A counted along it
T5 sequence (P25440 74-180 limits assumed): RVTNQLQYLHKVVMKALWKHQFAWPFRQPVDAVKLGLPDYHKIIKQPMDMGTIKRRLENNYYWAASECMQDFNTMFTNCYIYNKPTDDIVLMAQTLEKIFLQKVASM
T2 sequence (P25440 74-180 M165L limits assumed): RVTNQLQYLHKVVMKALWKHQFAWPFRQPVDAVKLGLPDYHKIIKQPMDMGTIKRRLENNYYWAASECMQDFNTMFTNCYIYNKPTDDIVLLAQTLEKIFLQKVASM
Sequence of Brd2(1)*(Met165Ala) (P25440 74-180 M165A limits assumed): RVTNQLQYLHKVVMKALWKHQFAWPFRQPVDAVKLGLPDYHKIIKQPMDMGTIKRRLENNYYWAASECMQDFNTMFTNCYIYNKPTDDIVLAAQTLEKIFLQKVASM

Turning to `CC[C@@H](C(=O)OC)[C@@H]1N=C(c2ccc(Cl)cc2)c2ccc(OC)cc2-n2c(C)nnc21` (racemic) [Compound 9-ET, (+−) methyl (R)-2-((S)-6-(4-chlorophenyl)-9-methoxy-1-methyl-4H-benzo[f][1,2,4]triazolo[4,3-a][1,4]diazepin-4-yl)butanoate], in test [1], the “Selectivity for Brd2(2) mutants relative to wild type by ITC (FIG. 16)” value is recorded as “higher selectivity for the mutants relative to wild types”.

In the case of `CN1Cc2cc(NS(=O)(=O)c3ccc(C(C)(C)C)cc3)ccc2NC1=O` [Compound 46, 4-(tert-butyl)-N-(3-methyl-2-oxo-1,2,3,4-tetrahydroquinazolin-6-yl)benzenesulfonamide], the “ΔTm Brd2(2)*(Met165-Leu)” value in test [2] stood at 0.3 ± 0.2 K. For the same compound, the “ΔTm Brd2(1)*(Met165-Leu)” value in test [3] is 0.1 ± 0.1 K. Also, the “ΔTm Brd2(2)*(Met165-Ala)” value in test [4] was determined as 2.5 ± 0.2 K. Further, in test [5], the “ΔTm Brd2(1)*(Met165-Ala)” value is given as 5.1 ± 0.2 K. In addition, in test [6], the “ΔTm Brd2(2)” value turned out to be 0.8 ± 0.1 K. Further, in test [7], the “ΔTm Brd2(1)” value amounted to 1.1 ± 0.2 K.

For `COc1ccc(S(=O)(=O)Nc2ccc3c(c2)CN(C)C(=O)N3)cc1` [Compound 47, 4-methoxy-N-(3-methyl-2-oxo-1,2,3,4-tetrahydroquinazolin-6-yl)benzenesulfonamide], the “ΔTm Brd2(2)*(Met165-Leu)” value in test [2] was 1.3 ± 0.2 K. The “ΔTm Brd2(1)*(Met165-Leu)” value in test [3] is recorded as 0.1 ± 0.3 K. In test [4], the “ΔTm Brd2(2)*(Met165-Ala)” value turned out to be 1.6 ± 0.3 K. Further, in test [5], the “ΔTm Brd2(1)*(Met165-Ala)” value stood at 0.0 ± 0.3 K. The “ΔTm Brd2(2)” value in test [6] came to 3.1 ± 0.4 K. Further, the “ΔTm Brd2(1)” value in test [7] came to 2.4 ± 0.1 K.

Take `CN1Cc2cc(NS(=O)(=O)c3ccc(-c4ccccc4)cc3)ccc2NC1=O` [Compound 48, N-(3-methyl-2-oxo-1,2,3,4-tetrahydroquinazolin-6-yl)-[1,1′-biphenyl]-4-sulfonamide]: the “ΔTm Brd2(2)*(Met165-Leu)” value in test [2] is 0.0 ± 0.1 K. In test [3], the “ΔTm Brd2(1)*(Met165-Leu)” value was 0.0 ± 0.1 K. In addition, the “ΔTm Brd2(2)*(Met165-Ala)” value in test [4] was 0.0 ± 0.1 K. Further, the “ΔTm Brd2(1)*(Met165-Ala)” value in test [5] was 1.5 ± 0.4 K. The “ΔTm Brd2(2)” value in test [6] is recorded as 0.0 ± 0.2 K. Further, in test [7], the “ΔTm Brd2(1)” value is 0.5 ± 0.2 K.

`COc1ccc(S(=O)(=O)Nc2ccc3c(c2)CN(C)C(=O)N3)c(OC)c1` [Compound 54, 2,4-dimethoxy-N-(3-methyl-2-oxo-1,2,3,4-tetrahydroquinazolin-6-yl)benzenesulfonamide]: the “ΔTm Brd2(2)*(Met165-Leu)” value in test [2] was 2.4 ± 0.4 K. For the same compound, the “ΔTm Brd2(1)*(Met165-Leu)” value in test [3] is given as 2.7 ± 0.3 K. The “ΔTm Brd2(2)*(Met165-Ala)” value in test [4] is given as 2.3 ± 0.1 K. Besides, the “ΔTm Brd2(1)*(Met165-Ala)” value in test [5] was 1.5 ± 0.2 K. Further, the “ΔTm Brd2(2)” value in test [6] stood at 1.6 ± 0.2 K. In addition, the “ΔTm Brd2(1)” value in test [7] turned out to be 2.4 ± 0.2 K.

For `COc1cc(C)ccc1S(=O)(=O)Nc1ccc2c(c1)CN(C)C(=O)N2` [Compound 52, 2-methoxy-4-methyl-N-(3-methyl-2-oxo-1,2,3,4-tetrahydroquinazolin-6-yl)benzenesulfonamide], the “ΔTm Brd2(2)*(Met165-Leu)” value in test [2] came out at 2.4 ± 0.1 K. For the same compound, the “ΔTm Brd2(1)*(Met165-Leu)” value in test [3] was determined as 3.1 ± 0.2 K. Moreover, in test [4], the “ΔTm Brd2(2)*(Met165-Ala)” value was 2.0 ± 0.2 K. Further, in test [5], the “ΔTm Brd2(1)*(Met165-Ala)” value is 1.2 ± 0.2 K. Also, in test [6], the “ΔTm Brd2(2)” value turned out to be 2.8 ± 0.2 K. In test [7], the “ΔTm Brd2(1)” value turned out to be 4.7 ± 0.2 K.
